Measurements published in patent US10351827B2, “Method for differentiating induced pluripotent stem cells into renal proximal tubular cell-like cells” (priority 2013, dated 2019).
Where two headings read alike, the source gives them in different places.

System: iPS(Foreskin)-4-derived d8 HPTC-like cells
[1] = 1 μg/ml, overnight (16 h), qPCR, normalized to vehicle control (=1), mean +/- s.d., n=3
[2] = 10 μg/ml, overnight (16 h), qPCR, normalized to vehicle control (=1), mean +/- s.d., n=3
[3] = 100 μg/ml, overnight (16 h), qPCR, normalized to vehicle control (=1), mean +/- s.d., n=3
[4] = 1,000 μg/ml, overnight (16 h), qPCR, normalized to vehicle control (=1), mean +/- s.d., n=3

IL6 Expression Levels (human, 16 h, 1 μg/ml) | IL8 Expression Levels (human, 16 h, 1 μg/ml) | IL6 Expression Levels (human, 16 h, 10 μg/ml) | IL8 Expression Levels (human, 16 h, 10 μg/ml) | IL6 Expression Levels (human, 16 h, 100 μg/ml) | IL8 Expression Levels (human, 16 h, 100 μg/ml) | IL6 Expression Levels (human, 16 h, 1000 μg/ml) | IL8 Expression Levels (human, 16 h, 1000 μg/ml) | Compound | IL6 Expression Levels [1] | IL8 Expression Levels [1] | IL6 Expression Levels [2] | IL8 Expression Levels [2] | IL6 Expression Levels [3] | IL8 Expression Levels [3] | IL6 Expression Levels [4] | IL8 Expression Levels [4]
1.3 ± 0.0 | 0.8 ± 0.3 | 1.2 ± 0.1 | 1.2 ± 0.2 | 1.4 ± 0.2 | 0.5 ± 0.1 | 0.3 ± 0.1 | 0.1 ± 0.0 | CC(=O)Nc1ccc(O)cc1 [Acetaminophen] |  |  |  |  |  |  |  | 
1.9 ± 0.2 | 0.8 ± 0.2 | 14.1 ± 1.2 | 255.7 ± 28.2 | 29.0 ± 1.2 | 3,284.1 ± 1,069.3 | 26.6 ± 4.3 | 3,852.3 ± 309.9 | COc1ccc(C[C@H](N)C(=O)N[C@H]2[C@@H](O)[C@H](n3cnc4c(N(C)C)ncnc43)O[C@@H]2CO)cc1 [Puromycin] |  |  |  |  |  |  |  | 
 |  |  |  |  |  |  |  | [Cl][Cd][Cl] [Cadmium chloride] | 3.6 ± 0.4 | 15.0 ± 0.8 | 10.9 ± 0.4 | 7.6 ± 0.4 | 10.3 ± 1.6 | 4.4 ± 0.6 | 11.8 ± 0.5 | 20.5 ± 8.3
1.6 ± 0.1 | 1.6 ± 0.6 | 1.9 ± 0.3 | 3.1 ± 1.5 | 1.7 ± 0.2 | 2.5 ± 0.6 | 1.9 ± 0.2 | 4.9 ± 1.9 | NCC(=O)O [Glycine] |  |  |  |  |  |  |  | 
 |  |  |  |  |  |  |  | [Cl][Cu][Cl] [Copper (II) chloride] | 1.2 ± 0.1 | 7.2 ± 0.6 | 2.2 ± 0.2 | 67.1 ± 18.1 | 22.5 ± 2.2 | 58.2 ± 3.2 | 13.4 ± 0.0 | 
 |  |  |  |  |  |  |  | [Cl][Au] [Gold (I) chloride] | 1.2 ± 0.2 | 0.9 ± 0.2 | 1.2 ± 0.1 | 0.9 ± 0.1 | 2.9 ± 0.2 | 2.0 ± 0.0 | 23.3 ± 0.4 | 1.2 ± 0.2
6.5 ± 0.8 | 9.8 ± 2.4 | 6.1 ± 0.4 | 6.9 ± 1.0 | 4.4 ± 0.4 | 1.9 ± 0.9 | 1.1 ± 0.1 |  | COc1ccc2[nH]cc(CCNC(C)=O)c2c1 [Melatonin] |  |  |  |  |  |  |  | 
 |  |  |  |  |  |  |  | CN[C@H](CC(C)C)C(=O)N[C@H]1C(=O)N[C@@H](CC(N)=O)C(=O)N[C@H]2C(=O)N[C@H]3C(=O)N[C@H](C(=O)N[C@H](C(=O)O)c4cc(O)cc(O)c4-c4cc3ccc4O)[C@H](O)c3ccc(c(Cl)c3)Oc3cc2cc(c3O[C@@H]2O[C@H](CO)[C@@H](O)[C@H](O)[C@H]2O[C@H]2C[C@](C)(N)[C@H](O)[C@H](C)O2)Oc2ccc(cc2Cl)[C@H]1O [Vancomycin] | 1.5 ± 0.3 | 0.7 ± 0.0 | 1.4 ± 0.1 | 0.6 ± 0.2 | 1.4 ± 0.1 | 2.9 ± 0.2 | 3.1 ± 0.2 | 98.5 ± 4.5
 |  |  |  |  |  |  |  | [Bi+3].[Bi+3].[O-2].[O-2].[O-2] [Bismuth (III) oxide] | 1.2 ± 0.1 | 0.4 ± 0.1 | 1.3 ± 0.2 | 2.6 ± 0.2 | 2.1 ± 0.1 | 33.0 ± 1.6 | 3.6 ± 0.3 | 192.7 ± 18.4
7.2 ± 0.2 | 23.3 ± 3.1 | 7.0 ± 1.1 | 11.1 ± 0.8 | 5.3 ± 0.1 | 7.7 ± 4.7 | 0.7 ± 0.2 | 6.4 ± 2.1 | CCOc1ccc(NC(C)=O)cc1 [Phenacetin] |  |  |  |  |  |  |  | 
1.2 ± 0.1 | 0.5 ± 0.1 | 1.5 ± 0.3 | 0.6 ± 0.2 | 1.3 ± 0.2 | 0.4 ± 0.1 | 1.4 ± 0.4 | 1.6 ± 0.2 | C[C@H]1O[C@H](O[C@H]2[C@H](O)[C@@H](O)[C@@H](O[C@H]3[C@H](O)[C@@H](O)C(O)O[C@@H]3CO)O[C@@H]2CO)[C@H](O)[C@@H](O)[C@@H]1N[C@H]1C=C(CO)[C@@H](O)[C@H](O)[C@H]1O (stereo partly shown) [Acarbose] |  |  |  |  |  |  |  | 
1.2 ± 0.1 | 1.2 ± 1.2 | 1.3 ± 0.1 | 1.2 ± 0.3 | 1.2 ± 0.1 | 2.4 ± 0.9 | 1.4 ± 0.2 | 6.1 ± 0.5 | CCC[C@@H]1C[C@@H](C(=O)N[C@@H]([C@H]2O[C@H](SC)[C@H](O)[C@@H](O)[C@H]2O)[C@@H](C)O)N(C)C1 [Lincomycin] |  |  |  |  |  |  |  | 
 |  |  |  |  |  |  |  | [K+].[K+].[O]=[Cr](=[O])([O-])[O][Cr](=[O])(=[O])[O-] [Potassium dichromate] | 1.2 ± 0.4 | 0.5 ± 0.0 | 1.0 ± 0.0 | 0.7 ± 0.1 | 3.3 ± 0.3 | 0.8 ± 0.0 | 3.7 ± 0.4 | 1.2 ± 0.0
 |  |  |  |  |  |  |  | O=[As]O[As]=O (stereo not shown) [Arsenic (III) oxide] | 1.5 ± 0.1 | 1.2 ± 0.5 | 5.2 ± 0.1 | 4.2 ± 0.1 | 14.2 ± 2.1 | 1.5 ± 0.2 | 8.2 ± 0.3 | 3.9 ± 1.6
1.3 ± 0.1 | 1.5 ± 0.1 | 1.3 ± 0.1 | 1.4 ± 0.1 | 1.6 ± 0.1 | 1.0 ± 0.5 | 2.8 ± 0.4 | 32.5 ± 1.4 | CC(C)[C@H](N)C(=O)OCCOCn1cnc2c(=O)[nH]c(N)nc21 [Valacyclovir] |  |  |  |  |  |  |  | 
6.6 ± 0.6 | 7.8 ± 0.4 | 6.1 ± 0.2 | 5.1 ± 0.6 |  |  |  |  | C=CC[C@@H]1/C=C(\C)C[C@H](C)C[C@H](OC)[C@H]2O[C@@](O)(C(=O)C(=O)N3CCCC[C@H]3C(=O)O[C@H](/C(C)=C/[C@@H]3CC[C@@H](O)[C@H](OC)C3)[C@H](C)[C@@H](O)CC1=O)[C@H](C)C[C@@H]2OC [Tacrolimus] |  |  |  |  |  |  |  | 
 |  |  |  |  |  |  |  | COc1cccc2c1cc([N+](=O)[O-])c1c(C(=O)O)cc3c(c12)OCO3 [Aristolochic acid] | 3.9 ± 0.5 | 5.0 ± 0.8 | 3.3 ± 0.2 | 4.8 ± 0.6 | 7.3 ± 1.6 | 43.5 ± 7.2 | 9.3 ± 0.5 | 1.6 ± 0.9
